Source: patent publication US9056152B2, “Medical device with crystalline drug coating” (Boston Scientific Scimed, Inc., priority 2011, dated 2015)

Key:
[1] = Porcine animal study of everolimus coated stents: drug in artery tissue (LC/MS) and drug remaining on stent (HPLC); assay type: in vivo, common swine; conditions: explanted at 28 days; for Tissue content at 28 days: 130 μg on 12 mm stents implanted in coronary and internal thoracic arteries of swine, drug in arteries by LC/MS; for % drug left on stent at 28 days: 130 μg on 12 mm stents implanted in swine arteries, drug remaining on stent by HPLC
Method: Stents coated with either crystalline or amorphous everolimus (130 μg on 12 mm stents) were implanted in the coronary arteries and internal thoracic arteries of common swine. The stented vessels were explanted after 3 hrs, 24 hrs, 7, 14 and 28 days. N=3 stents per timepoint were used. After sacrifice the stents were removed from the arteries and the amount of drug in the arteries was determined by LC/MS. The amount of drug remaining on the stent was determined by HPLC.

[2] = Everolimus solubility in water @ 37° C., amorphous vs crystalline form; assay type: physicochemical; conditions: data shown in FIG. 1
Method: FIG. 1 is a graph comparing everolimus solubility data in water @ 37° C. for amorphous and crystalline forms.

[3] = listed as crystalline everolimus

| Compound | Tissue content at 28 days [1] | Tissue content at 28 days ([1]; listed as amorphous everolimus) | % drug left on stent at 28 days [1] | % drug left on stent at 28 days ([1]; listed as amorphous drug) | Tissue content at 28 days [1, 3] | % drug left on stent at 28 days [1, 3] | solubility in water [2] |
| --- | --- | --- | --- | --- | --- | --- | --- |
| CO[C@H]1C[C@@H]2CC[C@@H](C)[C@@](O)(O2)C(=O)C(=O)N2CCCC[C@H]2C(=O)O[C@H]([C@H](C)C[C@@H]2CC[C@@H](OCCO)[C@H](OC)C2)CC(=O)[C@H](C)/C=C(\C)[C@@H](O)[C@@H](OC)C(=O)[C@H](C)C[C@H](C)/C=C/C=C/C=C/1C [Amorphous Everolimus, 40-O-(2-Hydroxyethyl)rapamycin] | 0.04 ng/mg | essentially no drug in the tissue | 0% | no drug remaining on the stents | – | – | – |
| CO[C@H]1C[C@@H]2CC[C@@H](C)[C@@](O)(O2)C(=O)C(=O)N2CCCC[C@H]2C(=O)O[C@H]([C@H](C)C[C@@H]2CC[C@@H](OCCO)[C@H](OC)C2)CC(=O)[C@H](C)/C=C(\C)[C@@H](O)[C@@H](OC)C(=O)[C@H](C)C[C@H](C)/C=C/C=C/C=C/1C [Crystalline Everolimus, 40-O-(2-Hydroxyethyl)rapamycin] | 6.1 ng/mg | – | 25.8% | – | 6 ng/mg | 25% | much lower solubility in water than amorphous everolimus |
